Data taken from ChEMBL document CHEMBL1133138, “Substituted 2-aminopyridines as inhibitors of nitric oxide synthases” (Bioorg Med Chem Lett, 2000).

Legend:
[1] = biological target: Nitric oxide synthase, inducible (Homo sapiens, UniProt P35228)
Nitric oxide synthase 3 = biological target: T1, Nitric oxide synthase 3 (Homo sapiens, UniProt P29474)
T1 sequence (P29474 whole entry): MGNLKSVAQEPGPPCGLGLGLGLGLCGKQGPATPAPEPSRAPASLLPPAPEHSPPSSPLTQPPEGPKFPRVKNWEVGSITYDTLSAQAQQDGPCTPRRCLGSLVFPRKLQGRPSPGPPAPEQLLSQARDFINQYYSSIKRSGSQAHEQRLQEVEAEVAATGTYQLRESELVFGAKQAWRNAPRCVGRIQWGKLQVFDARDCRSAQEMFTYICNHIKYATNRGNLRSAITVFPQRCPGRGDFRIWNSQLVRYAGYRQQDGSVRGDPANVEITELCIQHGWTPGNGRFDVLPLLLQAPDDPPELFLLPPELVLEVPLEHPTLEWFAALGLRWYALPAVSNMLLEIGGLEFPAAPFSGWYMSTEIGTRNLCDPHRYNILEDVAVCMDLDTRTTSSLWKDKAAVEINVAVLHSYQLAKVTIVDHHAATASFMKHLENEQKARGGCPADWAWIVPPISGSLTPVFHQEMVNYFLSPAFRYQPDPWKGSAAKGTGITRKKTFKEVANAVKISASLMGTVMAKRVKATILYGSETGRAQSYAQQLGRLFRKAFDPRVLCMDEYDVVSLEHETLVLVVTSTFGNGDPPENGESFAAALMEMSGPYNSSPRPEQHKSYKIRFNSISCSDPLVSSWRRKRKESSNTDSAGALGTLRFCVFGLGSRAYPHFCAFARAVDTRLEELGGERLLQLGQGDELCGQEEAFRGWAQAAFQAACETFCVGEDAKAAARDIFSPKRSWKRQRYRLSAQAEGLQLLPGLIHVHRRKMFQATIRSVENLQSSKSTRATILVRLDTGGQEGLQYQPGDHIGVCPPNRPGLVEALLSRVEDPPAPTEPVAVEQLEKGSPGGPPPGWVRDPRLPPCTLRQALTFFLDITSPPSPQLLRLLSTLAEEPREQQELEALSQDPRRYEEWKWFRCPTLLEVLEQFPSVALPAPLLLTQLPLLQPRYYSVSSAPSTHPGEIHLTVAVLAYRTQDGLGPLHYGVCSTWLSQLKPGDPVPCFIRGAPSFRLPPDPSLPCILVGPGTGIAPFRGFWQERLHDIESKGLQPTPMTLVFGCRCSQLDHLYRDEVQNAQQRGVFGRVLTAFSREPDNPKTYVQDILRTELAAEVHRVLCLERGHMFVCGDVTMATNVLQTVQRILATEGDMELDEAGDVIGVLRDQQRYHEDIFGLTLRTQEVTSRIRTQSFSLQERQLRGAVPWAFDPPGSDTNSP

Nitric oxide synthase 1 [2] = biological target: T2, Nitric oxide synthase 1 (Homo sapiens, UniProt P29475)
Mus musculus = test: Compound was evaluated for LPS induced nitric oxide increase in mouse plasma after peroral administration of the compound; type: functional; conditions: po
Rattus norvegicus [3] = test: Dose required to increase mean aterial blood pressure (MAP) by 40 mm versus control after intravenous administration in rat; type: functional
[4] = biological target: T3, Nitric oxide synthase 3 (Homo sapiens) (UniProt P29474); test: Inhibitory activity against Endothelial nitric oxide synthase; conditions: concentration not given here
T3 sequence (whole entry): T1 sequence (P29474 whole entry)

Nitric oxide synthase 1 [5] = biological target: T2, Nitric oxide synthase 1; test: Inhibitory activity against Neuronal nitric oxide synthase; conditions: concentration not given here
Rattus norvegicus [6] = test: Dose required to increase mean aterial blood pressure (MAP) by 40 mm versus control after intravenous administration in rats; type: functional

Chain of Nitric oxide synthase, inducible (P35228 whole entry): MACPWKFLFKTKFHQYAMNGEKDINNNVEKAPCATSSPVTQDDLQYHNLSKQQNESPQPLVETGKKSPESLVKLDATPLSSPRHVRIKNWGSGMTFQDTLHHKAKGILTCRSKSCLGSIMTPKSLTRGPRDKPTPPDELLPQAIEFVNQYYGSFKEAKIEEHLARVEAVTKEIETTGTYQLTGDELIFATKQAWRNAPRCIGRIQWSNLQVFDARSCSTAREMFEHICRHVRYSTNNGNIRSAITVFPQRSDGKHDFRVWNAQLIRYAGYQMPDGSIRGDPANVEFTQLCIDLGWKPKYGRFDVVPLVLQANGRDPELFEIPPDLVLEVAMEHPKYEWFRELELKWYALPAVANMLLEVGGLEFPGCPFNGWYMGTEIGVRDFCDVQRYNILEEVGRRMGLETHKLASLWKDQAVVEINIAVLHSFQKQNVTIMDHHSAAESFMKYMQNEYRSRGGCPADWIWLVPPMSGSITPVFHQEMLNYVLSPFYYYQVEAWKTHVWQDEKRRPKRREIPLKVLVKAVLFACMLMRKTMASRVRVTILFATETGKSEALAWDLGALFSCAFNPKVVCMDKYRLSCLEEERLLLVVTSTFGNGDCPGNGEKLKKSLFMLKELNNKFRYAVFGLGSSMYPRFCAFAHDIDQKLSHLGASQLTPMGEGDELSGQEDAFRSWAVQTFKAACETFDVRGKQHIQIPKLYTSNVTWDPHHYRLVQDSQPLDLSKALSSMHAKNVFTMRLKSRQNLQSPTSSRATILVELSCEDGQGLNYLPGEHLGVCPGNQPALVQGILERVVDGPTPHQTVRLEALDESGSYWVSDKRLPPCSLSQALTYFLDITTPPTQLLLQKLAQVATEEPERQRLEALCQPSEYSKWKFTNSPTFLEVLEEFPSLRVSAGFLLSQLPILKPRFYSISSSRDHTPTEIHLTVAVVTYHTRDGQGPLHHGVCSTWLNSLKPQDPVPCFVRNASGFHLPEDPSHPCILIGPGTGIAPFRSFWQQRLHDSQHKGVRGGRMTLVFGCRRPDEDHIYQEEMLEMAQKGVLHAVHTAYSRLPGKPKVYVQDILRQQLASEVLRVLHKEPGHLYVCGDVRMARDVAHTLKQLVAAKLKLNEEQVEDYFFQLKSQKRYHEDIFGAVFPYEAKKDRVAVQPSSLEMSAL
T2 sequence (P29475 whole entry): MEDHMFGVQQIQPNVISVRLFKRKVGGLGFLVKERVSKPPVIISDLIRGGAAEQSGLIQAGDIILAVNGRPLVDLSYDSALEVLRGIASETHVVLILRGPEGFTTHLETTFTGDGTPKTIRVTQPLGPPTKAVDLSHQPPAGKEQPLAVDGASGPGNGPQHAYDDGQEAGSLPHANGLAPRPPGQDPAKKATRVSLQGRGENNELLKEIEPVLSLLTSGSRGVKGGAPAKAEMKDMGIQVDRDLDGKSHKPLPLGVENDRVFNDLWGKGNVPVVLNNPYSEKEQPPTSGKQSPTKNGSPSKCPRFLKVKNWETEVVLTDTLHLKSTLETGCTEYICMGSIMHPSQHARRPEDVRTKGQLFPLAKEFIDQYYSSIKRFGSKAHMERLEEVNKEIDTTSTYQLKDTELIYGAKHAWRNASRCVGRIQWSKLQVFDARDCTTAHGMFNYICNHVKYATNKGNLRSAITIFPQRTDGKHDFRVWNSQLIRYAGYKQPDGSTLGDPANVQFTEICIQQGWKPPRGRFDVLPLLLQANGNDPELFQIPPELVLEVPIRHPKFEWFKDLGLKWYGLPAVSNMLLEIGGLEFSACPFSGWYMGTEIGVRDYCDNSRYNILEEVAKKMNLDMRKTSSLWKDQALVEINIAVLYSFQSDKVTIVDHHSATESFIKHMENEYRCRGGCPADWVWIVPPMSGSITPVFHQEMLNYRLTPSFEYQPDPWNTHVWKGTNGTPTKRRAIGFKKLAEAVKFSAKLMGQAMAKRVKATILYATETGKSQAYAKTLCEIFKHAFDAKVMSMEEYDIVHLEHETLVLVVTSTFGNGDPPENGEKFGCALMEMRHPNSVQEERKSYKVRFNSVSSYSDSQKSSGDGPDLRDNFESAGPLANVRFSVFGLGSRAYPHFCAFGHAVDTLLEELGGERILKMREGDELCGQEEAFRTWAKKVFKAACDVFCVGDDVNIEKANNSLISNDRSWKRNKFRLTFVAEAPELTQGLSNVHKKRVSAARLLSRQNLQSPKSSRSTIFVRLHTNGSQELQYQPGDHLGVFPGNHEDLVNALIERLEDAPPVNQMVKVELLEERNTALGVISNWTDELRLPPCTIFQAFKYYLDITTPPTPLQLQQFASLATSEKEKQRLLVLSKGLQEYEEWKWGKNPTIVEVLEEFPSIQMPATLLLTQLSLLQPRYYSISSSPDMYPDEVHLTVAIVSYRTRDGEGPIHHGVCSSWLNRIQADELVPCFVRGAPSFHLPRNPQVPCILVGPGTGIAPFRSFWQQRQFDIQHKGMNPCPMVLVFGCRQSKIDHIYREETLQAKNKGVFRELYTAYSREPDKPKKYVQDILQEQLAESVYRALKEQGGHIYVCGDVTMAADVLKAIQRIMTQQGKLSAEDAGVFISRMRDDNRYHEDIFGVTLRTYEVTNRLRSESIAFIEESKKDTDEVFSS

| Compound | IC50 [1] [nM] | IC50 (Nitric oxide synthase 3) [nM] | IC50 (Nitric oxide synthase 1 [2]) [nM] | further results |
| --- | --- | --- | --- | --- |
| CC(=N)NCCCC[C@H](N)C(=O)O [L-NIL] | 1400 | 7900 | 18400 | – |
| CC1CCN=C(N)C1 (stereo not drawn) | 16 | – | – | ED50 (Mus musculus): 0.15 mg/kg; HD50 (Rattus norvegicus [3]): 1.8 mg/kg |
| Nc1cc2c(cn1)CCCC2 | 4100 | 16600 | 10600 | – |
| Nc1nccc2c1CCCC2 | 29000 | 24000 | 11000 | – |
| N=C(N)NN [PIMAGEDINE] | 101000 | 500000 | 118000 | – |
| CCCc1ccnc(N)c1 | > 50000 | – | – | – |
| Cc1cc(N)nc(CC(C)C)c1 | 28 | 150 | 100 | – |
| Nc1ccccn1 [2-AMINOPYRIDINE] | 1900 | 2800 | – | – |
| Cc1cc(N)nc2c1CCCC2 | 4000 | 19800 | 2400 | – |
| CCCCc1cc(C)cc(N)n1 | 46 | – | – | inhibition [4]: 40%; inhibition (Nitric oxide synthase 1 [5]): 59% |
| Cc1cc(N)nc(CCCc2ccccc2)c1 | 12700 | 17200 | 3300 | – |
| Cc1cccnc1N | 940 | – | 1300 | – |
| Cc1ccnc(N)c1 | – | – | – | HD40 (Rattus norvegicus [6]): 0.11 mg/kg; ED50 (Mus musculus): 25 mg/kg |
| Nc1cc(Cl)ccn1 | > 50000 | – | – | – |
| Nc1cc2ccccc2cn1 [ISOQUINOLIN-3-AMINE] | > 50000 | – | – | – |
| Cc1cc(N)nc(CCC(C)C)c1 | 76 | 1900 | 510 | – |
| CCCc1c(C)ccnc1N | 34500 | – | – | – |

Continued, in another order:

| IC50 [1] [nM] | IC50 (Nitric oxide synthase 3) [nM] | IC50 (Nitric oxide synthase 1 [2]) [nM] | Compound | further results |
| --- | --- | --- | --- | --- |
| 59 | – | – | Cc1ccnc(N)c1N | – |
| 110 | 200 | 1200 | Cc1cc(N)nc(C(C)C)c1 | – |
| 1300 | 3400 | 610 | CCc1cnc(N)cc1C | – |
| 7200 | 2800 | 2200 | Cc1ccc(N)nc1C | – |
| 810 | 600 | 340 | Cc1cnc(N)cc1C | – |
| – | 150 | – | Cc1ccnc(N)c1C | – |
| 2700 | 3300 | – | CCc1c(C)ccnc1N | – |
| > 50000 | > 50000 | > 50000 | Nc1ccc2c(n1)CCC2 | – |
| 330 | 49 | – | CCc1cc(C)cc(N)n1 | inhibition (Nitric oxide synthase 1 [5]): 42% |
| 14600 | 3600 | 2000 | Cc1cnc(N)c(C)c1 | – |
| 110 | 45 | – | Cc1cc(C)nc(N)c1 | – |
| 600 | – | – | Cc1ccc(N)nc1 | – |
